Several values for one entry are separate records, joined by “and”; a condition that tells them apart may be missing. Identical values can stand only once.
Key:
[1] = tested on: HCE-T (human cornea epithelial cell) (HCE-T(사람 각막 상피 세포)); experiment: Hyaluronic acid amount in HCE-T medium by hyaluronan-ELISA; type: cell-based; parameters: dose or concentration left out as unconfirmed; conditions: 1 ml medium containing cytidine, 72 h, 37℃
[2] = tested on: dry eye model in CBA/J mice (CBA/J 마우스의 건성안 모델); type: in vivo, mouse

Nc1ccn([C@@H]2O[C@H](CO)[C@@H](O)[C@H]2O)c(=O)n1 [시티딘]
amount of hyaluronic acid (mean) [1]: 88.9 | amount of hyaluronic acid compared with control group ([1]; versus control): 히아루론산의 양이 대조군에 비하여 증가하지 않음 | tear volume (mean) ([2]; N 8): 7.39 and 4.54 and 6.18 and 7.03 | tear volume compared with control group ([2]; mouse, in vivo): 유의하게 눈물의 양이 증가 | tear volume compared with normal group ([2]; mouse, in vivo): 정상군에 해당하는 눈물량의 분비

Source: patent publication KR20110062313A, “시티딘을 포함하는 약제학적 조성물” (주식회사 머젠스, priority 2009, dated 2011)
